Experiment: DSC denaturation peak temperature of treated dark brown hair
Parameters: species or system Human
Settings: Example 4, 5 treatments, pH 5, 32° C.
Protocol: DSC measures the denaturation temperature of the α-helical proteins in the microfibrils of the hair fibre. This temperature is influenced by the cross-link density of the surrounding matrix proteins (Wortmann et al., J. Cosmet. Sci., 53, 219-228 (2002)). A higher denaturation peak temperature indicates greater integrity of the fibre. Damage repair was assessed using DSC. A Mettler Toledo DSC1 analyser was used. The hair was shaved, using clippers, into 1-2 mm lengths. Approximately 5 mg of sample was weighed into a pressure resistant (20 bar), stainless steel, large volume pan (120 μL capacity). 50 μL of water was added and the pan was sealed. The samples were then mixed using a rotary mixer and left overnight to allow the water to equilibrate throughout the sample. […] The helix transition temperature was measured. Each sample was measured three times. Selected 2'' hair switches were bleached once using […] […] 4200 μL Britton-Robinson buffer (62.5 mM pH 5; final concentration 50 mM) 600 μl hydrogen peroxide 3% (SBP- or HRP-treated sample and (+)-catechin/H2O2 treated sample) or 600 μL milliQ water (laccase-treated sample and (+)-catechin treated sample) 600 μL (+)-catechin, 100 mg/mL stock in DMSO The reagents listed above were combined in 15 mL Falcon centrifuge tubes. […] Samples were measured three times.

## Oc1cc(O)c2c(c1)O[C@H](c1ccc(O)c(O)c1)[C@@H](O)C2 [(+)-Catechin, (+)-catechin]
Dark brown hair bleached x1
  Denaturation peak temperature: 153.38 +/− 0.43 °C
Unbleached dark brown hair
  Denaturation peak temperature: 151.16 +/− 0.49 °C
